Patent US20180057505A1, “BICYCLIC HETEROARYL COMPOUNDS USEFUL AS INHIBITORS OF THE PAR-2 SIGNALING PATHWAY” (VERTEX PHARMACEUTICALS INCORPORATED, priority 2015, published 2018)

What was measured:
Type in all cases: cell-based
[1] = tested on: Thrombin-stimulated Ca2+ response in HT-29 cells; test: Ca FLIPR TETRA assay, ANTAGONIST mode, activator 1 U/mL Thrombin; details: Homo sapiens; HT-29 cells, activator 1 U/mL Thrombin
Procedure, shortened: (§1)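 Ca2+ flux by FLIPR Tetra in HT-29 cells after 30 min r.t. compound preincubation, followed by stimulation with SLIGKV 8 μM, thrombin 1 U/mL, trypsin 3.1 U/mL or UTP 0.6 μM (final). Cells were dye-loaded with calcium 5 beforehand; compound-only responses were also read.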

PAR2 (HT-29 cells) [2] = target: T1, PAR2 (HT-29 cells) (Homo sapiens, UniProt P55085); test: Ca FLIPR TETRA assay, ANTAGONIST mode, activator 8 μM SLIGKV; details: HT-29 cells, activator 8 μM SLIGKV
T1 construct: host or cells: HT-29
T1 sequence (P55085 26-397): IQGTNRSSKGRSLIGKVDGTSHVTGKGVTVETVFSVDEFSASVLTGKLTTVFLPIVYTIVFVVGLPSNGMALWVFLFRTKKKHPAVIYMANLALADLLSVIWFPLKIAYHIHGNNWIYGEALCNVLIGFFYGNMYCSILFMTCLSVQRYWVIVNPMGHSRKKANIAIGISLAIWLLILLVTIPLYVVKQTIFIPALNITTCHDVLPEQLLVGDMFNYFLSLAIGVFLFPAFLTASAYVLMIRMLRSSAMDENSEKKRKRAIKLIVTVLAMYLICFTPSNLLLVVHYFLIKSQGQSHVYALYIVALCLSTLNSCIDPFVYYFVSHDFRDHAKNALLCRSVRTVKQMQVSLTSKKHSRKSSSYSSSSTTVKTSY
Procedure, shortened: as §1

[3] = tested on: UTP-stimulated Ca2+ response in HT-29 cells; test: Ca FLIPR TETRA assay, ANTAGONIST mode, activator 0.6 μM UTP; details: Homo sapiens; HT-29 cells, activator 0.6 μM UTP
Procedure, shortened: as §1

PAR2 (HT-29 cells) [4] = target: T1, PAR2 (HT-29 cells); test: Ca FLIPR TETRA assay, ANTAGONIST mode, activator 3.1 U/mL trypsin; details: HT-29 cells, activator 3.1 U/mL trypsin
Procedure, shortened: as §1

[5] = maximal antagonist concentration per Method (A: 0.1, 1 or 2 μM; B: 50 μM)
[6] = Method A: maximal concentration of antagonist 0.1, 1 or 2 μM

Structure (SMILES) | IC50 [1] | IC50 (PAR2 (HT-29 cells) [2]; [5]) | IC50 [3] | IC50 (PAR2 (HT-29 cells) [4]; [5]) | IC50 (PAR2 (HT-29 cells) [2]; [6]) | IC50 (PAR2 (HT-29 cells) [4]; [6])
Cc1cc(N2CCN(C(=O)c3cc4nc(-c5ccc(Cl)c(F)c5)cc(C(C)(C)C)c4o3)C(C)(C)C2=O)[nH]n1 [Example I-284, 4-[7-tert-butyl-5-(4-chloro-3-fluoro-phenyl)furo[3,2-b]pyridine-2-carbonyl]-3,3-dimethyl-1-(3-methyl-1H-pyrazol-5-yl)piperazin-2-one] | > 2000 nM | 13 nM | > 2000 nM | 14.5 nM |  | 
Cc1cc(N2CCN(C(=O)c3cc4nc(-c5ccc(Cl)cc5)cc(C(C)(C)C)c4o3)C(C)(C)C2=O)[nH]n1 [Example I-285, 4-[7-tert-butyl-5-(4-chlorophenyl)furo[3,2-b]pyridine-2-carbonyl]-3,3-dimethyl-1-(3-methyl-1H-pyrazol-5-yl)piperazin-2-one] | > 2000 nM | 28 nM | > 2000 nM | 23.5 nM |  | 
CC(C)(C)c1cc(-c2ccc(Cl)c(F)c2)nc2cc(C(=O)N3CCN(c4cc(C(=O)O)ccn4)CC3(C)C)oc12 [Example I-286] | > 2000 nM | 1.4 nM | > 2000 nM | 2.6 nM |  | 
CC(C)(C)c1cc(-c2ccc(Cl)c(F)c2)nc2cc(C(=O)N3CCN(c4ccc(C(=O)O)cn4)CC3(C)C)oc12 [Example I-287] | 1800 nM | 0.3 nM | 1620 nM | 0.5 nM |  | 
CC(C)(C)c1cc(-c2ccc(Cl)c(F)c2)nc2cc(C(=O)N3CCN(c4nc(C(=O)O)co4)CC3(C)C)oc12 [Example I-289] | > 2000 nM | 0.1 nM | > 2000 nM | 0.3 nM |  | 
Cn1cc(C(=O)O)c(C(=O)N2CCN(C(=O)c3cc4nc(C5CC6(CCC6)C5)cc(C(C)(C)C)c4o3)C(C)(C)C2)n1 [Example I-291] | > 2000 nM | 0.7 nM | > 2000 nM | 1.1 nM |  | 
CC(C)(C)c1cc(C2CC3(CCC3)C2)nc2cc(C(=O)N3CCN(C(=O)CCC(=O)O)CC3(C)C)oc12 [Example I-292] | > 2000 nM | 3.5 nM | > 2000 nM | 7.1 nM |  | 
CCS(=O)(=O)NCC(=O)N1CCN(C(=O)c2cc3nc(C4CC5(CCC5)C4)cc(C(C)(C)C)c3o2)C(C)(C)C1 [Example I-293] | > 2000 nM | 5.4 nM | > 2000 nM | 6.7 nM |  | 
Cc1cc(C(=O)N2CCN(C(=O)c3cc4nc(C5CC6(CCC6)C5)cc(C(C)(C)C)c4o3)C(C)(C)C2)[nH]n1 [Example I-294] | > 2000 nM | 1.5 nM | > 2000 nM | 3.6 nM |  | 
Cc1n[nH]c(C(=O)N2CCN(C(=O)c3cc4nc(C5CC6(CCC6)C5)cc(C(C)(C)C)c4o3)C(C)(C)C2)n1 [Example I-295] | > 2000 nM | 7.3 nM | > 2000 nM | 22 nM |  | 
CC(C)(C)c1cc(C2CC3(CCC3)C2)nc2cc(C(=O)N3CCN(C(=O)[C@H]4C[C@@](C)(O)C4)CC3(C)C)oc12 [Example I-296] | > 2000 nM | 0.7 nM | > 2000 nM | 0.7 nM |  | 
CC(C)(C)c1cc(C2CC3(CCC3)C2)nc2cc(C(=O)N3CCN(C(=O)[C@H]4CC[C@@](C)(C(=O)O)CC4)CC3(C)C)oc12 [Example I-297] | 1400 nM | 0.2 nM | 1200 nM | 0.2 nM |  | 
CC(C)(C)c1cc(C2CC3(CCC3)C2)nc2cc(C(=O)N3CCN(C(=O)[C@H]4CC[C@](C)(C(=O)O)CC4)CC3(C)C)oc12 [Example I-298] | 510 nM |  | 510 nM |  | 14 nM | 18 nM
CC(C)(C)c1cc(-c2ccc(Cl)c(F)c2)nc2cc(C(=O)N3CCC(CC(=O)O)CC3(C)C)oc12 (stereo not drawn) [Example I-299] | > 2000 nM |  | 1700 nM |  | 0.2 nM | 0.2 nM
CC1(C)CN(C(=O)[C@H]2C[C@@](C)(O)C2)CCN1C(=O)c1cc2nc(-c3ccc(Cl)c(F)c3)cc(C3(C#N)CC(F)(F)C3)c2o1 [Example I-300] | > 2000 nM |  | > 2000 nM |  | 1.6 nM | 1.6 nM
